Results from patent publication USRE37781E1, “Substituted cyclic carbonyls and derivatives thereof useful as retroviral protease inhibitors” (DuPont Pharmaceuticals Company, priority 1991, dated 2002).
In brackets after ≈: the same amount, converted by molar mass. Read-outs that look alike come from different tables or passages of the source.

How the values were obtained:
[1] = biological target: single-chain tethered dimer of HIV protease (Human immunodeficiency virus 1, UniProt P04585); assay: biochemical; assay type: biochemical; parameters: fused on or other part: A second copy of the same protease unit is joined to the first by a short peptide tether, giving one polypeptide
[2] = system: HIV-1 (RF) in MT-2 cells; assay: microbe, parasite or virus in culture; assay type: cell-based
Method in brief: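 HIV-1 laboratory strains (RF, MN, IIIB) grown in H9 cells in RPMI 1640 with 5% FCS; infections in MT-2 cells. Viral RNA quantified by hybridization with biotinylated gag/pol capture probes on streptavidin plates and alkaline phosphatase-conjugated reporter probes; BH10 gag-pol in vitro transcripts serve as RNA standards.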

[3] = read-out: HPLC K1, Table 2d, HIV protease inhibition, HPLC method
[4] = Human immunodeficiency virus 1, MT2, 48 h, Table 2d, HIV RNA assay, read-out: IC90
[5] = read-out: HPLC K1, Table 2d, class symbols
[6] = Human immunodeficiency virus 1, MT2, 48 h, Table 2d, class symbols, read-out: IC90
[7] = Table 2d, class symbols, read-out: HPLC K1
[8] = Table 2d, HIV protease inhibition, HPLC method, read-out: HPLC K1

With CNCc1cccc(CN2C(=O)N(Cc3cccc(CNC)c3)C(Cc3ccccc3)C(O)C(O)C2Cc2ccccc2)c1 (stereo not drawn) [Example 15XC] the Ki [1, 3] was 10 to 1000 nM and the IC90 [2, 4] was < 10 µg/mL.

In the case of CC(O)c1cccc(CN2C(=O)N(Cc3cccc(Br)c3)C(Cc3ccccc3)C(O)C(O)C2Cc2ccccc2)c1 (stereo not drawn) [Example 9R], the Ki [1, 5] is reported as 10 to 1000 nM and the IC90 [2, 6] is reported as < 10 µg/mL.

In the case of O=S1(=O)N(Cc2cccc(CO)c2)C(Cc2ccccc2)C(O)C(O)C(Cc2ccccc2)N1Cc1cccc(CO)c1 (stereo not drawn) [23N], the Ki ([1]; Table 2m, read-out: HPLC Ki) is reported as < 10 nM and the IC90 ([2]; Table 2m) is reported as “+++ (+++=<10 μg/mL)”.

For O=C1N(CCCCCCO)C(Cc2ccccc2)C(O)C(O)C(Cc2ccccc2)N1CCCCCCCl (stereo not drawn) [Example 15VE], the Ki [1, 5] was 10 to 1000 nM and the IC90 [2, 6] was < 10 µg/mL.

With O=C1N(CC2CC2)C(CCc2ccccc2)[C@@H](O)[C@@H](Cc2ccccc2)N1CC1CC1 (stereo partly drawn) [Example 8H] the Ki ([1]; read-out: Ki (HPLC), Table 1e, cells marked (HPLC)) was < 10 nM and the IC90 ([2]; Human immunodeficiency virus 1, MT2, Table 1e, read-out: IC90) was < 10 µg/mL.

With CS(=O)(=O)CCCCCN1C(=O)N(CCCCCO)C(Cc2ccccc2)C(O)C(O)C1Cc1ccccc1 (stereo not drawn) [15VT] the Ki [1, 7] was < 10 nM and the IC90 ([2]; Table 2d, class symbols) was “+++ (+++=<10 μg/mL)”.

With O=Cc1cccc(CN2C(Cc3ccccc3)C(O)C(O)C(Cc3ccccc3)N(Cc3cccc(C=O)c3)S2(=O)=O)c1 (stereo not drawn) [23Q] the Ki ([1]; Table 2m, read-out: HPLC Ki) was < 10 nM and the IC90 ([2]; Table 2m) was “+++ (+++=<10 μg/mL)”.

Oc1cccc(CN2C(=S)N(Cc3cccc(O)c3)C(Cc3ccccc3)C(O)C(O)C2Cc2ccccc2)c1 (stereo not drawn) [Example 27J] was tested, and the Ki ([1]; Table 2q, read-out: HPLC Ki) was < 10 nM and the IC90 ([2]; Table 2q) was “+++ (+++=<10 μg/mL)”.

Compound O=C1NC(Cc2ccccc2)C(O)C(O)C(Cc2ccccc2)N1CCCCCCCO (stereo not drawn) [Example 12o] has a Ki [1, 5] of 10 to 1000 nM and an IC90 [2, 6] of 10 to 100 µg/mL (≈ 22.7 to 227 µM).

With C[Si](C)(C)CCOCn1ccnc1-c1cccc(CN2C(=O)N(Cc3cccc(-c4ncc[nH]4)c3)C(Cc3ccccc3)C(O)C(O)C2Cc2ccccc2)c1 (stereo not drawn) [Example 15YK] the Ki [1, 3] was 10 to 1000 nM and the IC90 [2, 4] was < 10 µg/mL.

With Nc1n[nH]c2ccc(CN3C(=O)N(Cc4ccc5[nH]nc(N)c5c4)C(Cc4ccccc4)C(O)C(O)C3Cc3ccccc3)cc12 (stereo not drawn) [15DF] the Ki [1, 8] was < 10 nM and the IC90 ([2]; Table 2d, HIV RNA assay) was “+++ (+++=<10 μg/mL)”.

In the case of CC1(C)CCC(C)(C)c2cc(CN3C(=O)N(Cc4ccc5c(c4)C(C)(C)CCC5(C)C)C(Cc4ccccc4)C(O)C(O)C3Cc3ccccc3)ccc21 (stereo not drawn) [15EL], the Ki [1, 8] is reported as > 1000 nM and the IC90 ([2]; Table 2d, HIV RNA assay) is reported as “++/+ (The ++/+ is used in the cases where an IC90 was determined to be >50 μg/mL)”.

For O=S1(=O)N(Cc2ccc(OCc3ccccc3)cc2)C(Cc2ccccc2)C(O)C(O)C(Cc2ccccc2)N1Cc1ccc(OCc2ccccc2)cc1 (stereo not drawn) [23J], the Ki ([1]; Table 2m, read-out: HPLC Ki) was > 1000 nM and the IC90 ([2]; Table 2m) was “++ (++=10 to 100 μg/mL)”.

For COC(=O)NCCCCCN1C(=O)N(CCCCCNC(=O)OC)C(Cc2ccccc2)C(O)C(O)C1Cc1ccccc1 (stereo not drawn) [15EQ], the Ki [1, 8] was 10 to 1000 nM and the IC90 ([2]; Table 2d, HIV RNA assay) was “++/+ (The ++/+ is used in the cases where an IC90 was determined to be >50 μg/mL)”.

O=C(NCCCCCN1C(=O)N(CCCCCNC(=O)c2cccc(C(F)(F)F)c2)C(Cc2ccccc2)C(O)C(O)C1Cc1ccccc1)c1cccc(C(F)(F)F)c1 (stereo not drawn) [15FJ] was tested, and the Ki ([1]; HIV protease inhibition, HPLC method, Table 2d, read-out: HPLC K1) was 10 to 1000 nM and the IC90 ([2]; HIV RNA assay, HIV-1 infected MT-2 cells, Table 2d) was “++/+ (The ++/+ is used in the cases where an IC90 was determined to be >50 μg/mL)”.

In the case of O=C1N(Cc2cnccc2O)C(Cc2ccccc2)C(O)C(O)C(Cc2ccccc2)N1Cc1cnccc1O (stereo not drawn) [Example 14C], the Ki [1, 7] is reported as 10 to 1000 nM and the IC90 ([2]; Table 2d, class symbols) is reported as “+ (+=>100 μg/mL)”.

For O=C1N(Cc2cccc(-c3cc[nH]n3)c2)C(Cc2ccc(F)cc2)C(O)C(O)C(Cc2ccc(F)cc2)N1CC1CC1 (stereo not drawn) [20AE], the Ki ([1]; Table 2i, read-out: HPLC Ki) was < 10 nM and the IC90 ([2]; Table 2i) was “+++ (+++=<10 μg/mL)”.

O=S1(=O)N(Cc2cccc(CO)c2)C(Cc2ccc(F)cc2)C(O)C(O)C(Cc2ccc(F)cc2)N1Cc1cccc(CO)c1 (stereo not drawn) [31C] was tested, and the Ki ([1]; Table 2u (second printing), HPLC method, read-out: K1 (HPLC)) was < 10 nM, the Ki ([1]; Table 2u, HPLC method, read-out: K1 (HPLC)) was < 10 nM and the IC90 ([2]; Table 2u) was “+++ (+++=<10 μg/mL)”. For the same compound, the IC90 ([2]; Table 2u (second printing)) was “+++ (+++=<10 μg/mL)”.

In the case of Nc1cccc(CN2C(Cc3ccccc3)C(O)C(O)C(Cc3ccccc3)N(Cc3cccc(N)c3)S2(=O)=O)c1 (stereo not drawn) [23M], the Ki ([1]; Table 2m, read-out: HPLC Ki) is reported as < 10 nM and the IC90 ([2]; Table 2m) is reported as “+++ (+++=<10 μg/mL)”.

For NCCCCCCN1C(=O)N(Cc2ccc(CO)cc2)C(Cc2ccccc2)C(O)C(O)C1Cc1ccccc1 (stereo not drawn) [Example 15WD], the Ki [1, 5] was 10 to 1000 nM and the IC90 [2, 6] was < 10 µg/mL.

O=C1N(Cc2ccc(O)cc2)C(Cc2ccccc2)C(O)C(O)C(Cc2ccccc2)N1Cc1cccc(-c2cc[nH]n2)c1 (stereo not drawn) [15CA] was tested, and the Ki [1, 3] was < 10 nM and the IC90 [2, 4] was < 10 µg/mL.

In the case of COC(=O)c1cc(CN2C(=O)N(Cc3ccc(F)c(C(=O)OC)c3)C(Cc3ccccc3)C(O)C(O)C2Cc2ccccc2)ccc1F (stereo not drawn) [15EE], the Ki [1, 8] is reported as < 10 nM and the IC90 ([2]; Table 2d, HIV RNA assay) is reported as “+ (+=>100 μg/mL)”.

For O=P1(Oc2ccccc2)N(CC2CC2)[C@H](Cc2ccccc2)[C@H](O)[C@@H](O)[C@@H](Cc2ccccc2)N1CC1CC1 (stereo partly drawn) [28C], the Ki ([1]; Table 2r, read-out: Ki HPLC) was 10 to 1000 nM and the IC90 ([2]; Table 2r) was “+++ (+++=<10 μg/mL)”.
